This passage reports IC50 results from patent US20250134882A1, “PROTEIN TYROSINE PHOSPHATASE INHIBITORS AND USES THEREOF” (Nerio Therapeutics, Inc., priority 2022, published 2025).

The test system of assay [1] is murine B16F10 melanoma cell line. The assay can be described thus: B16F10 IFNγ-induced cellular growth inhibition assay (xCELLigence RTCA). It counts as cell-based. The note with it: Mus musculus, B16-F10, 48 h; read-out: B16 IFNγ Mediated Growth Inhibition Assay: AVG IC50. As for the experimental part:
Example B: B16F10 Cellular Growth Inhibition Assay Compound activity was determined using an interferon gamma (IFNγ)-induced cellular growth inhibition assay with the murine B16F10 melanoma cell line on an Agilent xCELLigence Real-Time Cell Analysis platform (RTCA). RTCA E-Plate View 96 plates (Agilent, 300601010) were pre-equilibrated with 50 μL of assay media (DMEM+10% FBS, Gibco 10566-024, Gibco 10082-147) at 37° C. in a humidified incubator before taking an initial measurement of impedance (sweep). […] Cells were incubated at room temperature for 20 min to allow cells to settle before placing them in the xCELLigence reader and incubating overnight at 37° C., sweeping wells every 15 minutes. After 24 hours, well readings were paused, plates were removed from the incubator and compounds were added using a Tecan D300e dispenser. […] Assay plates were placed in the xCELLigence reader and swept every 15 minutes. After 48 hours, well readings were normalized to the time point immediately preceding compound addition and the area under the growth curve (AUC) was calculated by the RTCA software and exported.

Assay [2] addresses full-length human PTPN2 (TC45) (1-387) protein (Homo sapiens (Human), UniProt P17706). Nature of the assay: Enzymatic assay with full-length PTPN2 and DiFMUP substrate. In kind it is biochemical. The note with it: 0.5 nM PTPN2, 100 μM DiFMUP, 30 min at room temperature. From the text: Compounds were subsequently added using a Tecan D300e dispenser. […] A four-parameter curve fit was used to determine IC50 values from % inhibition data.

full-length human PTPN2 (TC45) (1-387) protein, sequence (P17706 other isoform, or with tags, fused parts or gaps): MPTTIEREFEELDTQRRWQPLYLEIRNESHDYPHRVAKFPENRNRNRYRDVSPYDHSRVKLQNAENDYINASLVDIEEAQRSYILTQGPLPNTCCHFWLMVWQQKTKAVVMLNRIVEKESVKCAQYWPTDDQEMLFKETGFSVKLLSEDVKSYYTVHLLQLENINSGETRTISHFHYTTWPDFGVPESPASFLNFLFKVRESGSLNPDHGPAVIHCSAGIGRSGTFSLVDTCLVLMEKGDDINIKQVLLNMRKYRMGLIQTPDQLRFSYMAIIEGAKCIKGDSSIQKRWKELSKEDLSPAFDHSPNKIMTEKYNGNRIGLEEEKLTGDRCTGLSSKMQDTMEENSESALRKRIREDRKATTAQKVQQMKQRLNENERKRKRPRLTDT

On to `CC(C)CCN[C@@H]1C[C@H]2C[C@@H]1c1c2cc(O)c(N2CC(=O)NS2(=O)=O)c1F` [Example 3, 5-((1R,3R,4R)-5-fluoro-7-hydroxy-3-(isopentylamino)-1,2,3,4-tetrahydro-1,4-methanonaphthalen-6-yl)-1,2,5-thiadiazolidin-3-one 1,1-dioxide], for which the IC50 (as a rule, the point on the concentration scale where inhibition reaches its midpoint) in assay [1] stood at 7.82 µM.
Turning to `CC(C)CCNC1CCc2nc(O)c(N3CC(=O)NS3(=O)=O)c(F)c2C1` (centres unmarked) [Example 4, 5-(4-fluoro-2-hydroxy-6-(isopentylamino)-5,6,7,8-tetrahydroquinolin-3-yl)-1,2,5-thiadiazolidin-3-one 1,1-dioxide], it took 70.8 µM to reach half-maximal inhibition in assay [2] (IC50).
